Entries after “also recorded” stand apart in the source; their conditions may differ.
Experiments:
human PPAR isoforms = test system: human PPAR isoforms; set-up: method as in Sahin et al. 2022 (likely, number not given); conditions: previously investigated; ref Sahin et al. 2022 (likely, number not given); cited from earlier work
PaPhzD = target: T1, PaPhzD (Pseudomonas aeruginosa, UniProt P0DPB9); test: Thermal shift assay (TSA) with SYPRO Orange; type: binding; conditions: for Concentration–response behavior of ΔTm: 6.25 to 100 μM; for ΔTm at 50 µM: read-out: ΔTm of PaPhzD
T1 construct: inferred from Ni-NTA purification with imidazole elution; made in house; host or cells: E. coli BL21(DE3)
Protocol: Thermal shift assays were performed on an Applied Biosystems 7500 RT-PCR (Applied Biosystems, Foster City, CA USA). All experiments were carried out in triplicate with 1 °C per minute increments in temperatures that range from 25 to 85 °C in 96-well PCR plates (PCR plates 96-well, BioRad), sealed with transparent capping strips (Flatcap strips, BioRad). The fluorescence of SYPRO Orange (Invitrogen S6650) was monitored (excitation wavelength, 492 nm; emission wavelength, 610 nm). Before the compounds’ screening, protein and DMSO concentrations were evaluated to improve PaPhzD stability throughout the assay.
The protein concentration required for an optimal signal-to-noise ratio (>5-fold) was evaluated by analysis of the raw fluorescence curves at different PaPhzD concentrations (1–5 μM). Then, the effect of DMSO (0–10%) over PaPhzD T m was evaluated at the optimal protein concentration. Fluorescence raw data were recorded using Applied Biosystems 7500 Software v2.0 and then processed with NAMI software to calculate T m values by the first-derivative method.
LDT compounds were screened at a final concentration of 50 μM. Briefly, 1 μL of each compound (1 mM DMSO stock solution) was added to a mixed solution containing 5 μM PaPhzD diluted in 50 mM Tris–HCl buffer (pH 8.0) containing 100 mM NaCl, 1 mM DTT, and SYPRO Orange dye (Invitrogen S6650) (1:100 dilution). Each compound was assayed in triplicate, and ΔT m values were calculated by comparison to reference wells that had 1 μL DMSO instead of the LDT compounds. Differences between T m values (ΔT m) were considered statistically significant when p < 0.01, according to the one-way ANOVA followed by Dunnett’s post-test for multiple comparisons, available in GraphPad Prism 9.0 software (GraphPad Software, San Diego, CA, USA, www.graphpad.com).
Compounds with ΔT m values statistically different from the reference were also assayed at different concentrations (ranging from 6.25 to 100 μM) to evaluate the concentration–response behavior. The ΔT m versus concentration plots were generated using the nonlinear regression method available in GraphPad Prism version 9.0.

PaPhzD-FITC = target: T2, PaPhzD-FITC (Pseudomonas aeruginosa, UniProt P0DPB9); test: Fluorescence binding assay with FITC-labeled PaPhzD
T2 construct: inferred from Ni-NTA purification with imidazole elution; made in house; host or cells: E. coli BL21(DE3)
Protocol: PaPhzD (2.1 mg/mL) was incubated with 6 mg/mL fluorescein isothiocyanate (FITC) (Sigma-Aldrich 46950) (1:1) for 2 h at 25 °C. Next, the reaction mixture was eluted on a Hi-Trap HP desalting column (GE Healthcare) with 2 CV of 50 mM HEPES buffer (pH 8.0). The collected fractions were quantified at two different wavelengths (280 and 495 nm), and the molar ratio (Abs495/Abs280) ranging from 0.3 to 1.0 was employed for K d calculation experiments.
Subsequently, the fluorescence intensity of 0.32 μM of FITC-labeled PaPhzD was measured on a real-time thermocycler (Applied Biosystems 7500) equipped with the filter FAN (excitation wavelength: 498 nm; emission wavelength: 530 nm) for 10 min in the presence of different concentrations of each LDT compound (ranging 0.7–100 μM), previously diluted in DMSO.
The fluorescence raw data were recorded using Applied Biosystems 7500 Software v2.0, then exported to GraphPad Prism version 9.0 software to build fluorescence intensity × concentration plots and calculate K d values of the ligands by the nonlinear regression method (3-parameter fit). All experiments were carried out in triplicate using a 96-well PCR plate, manually sealed with transparent capping strips (Flatcap strips, BioRadVR).

P. aeruginosa = test: Colony morphology in medium containing compounds; type: cell-based, Pseudomonas aeruginosa; conditions: data not shown
P. aeruginosa PA14 [1] = test: Swarming assay; type: cell-based, Pseudomonas aeruginosa; conditions: 100 μM
Protocol: Swarming assays were performed as described, using 6-well plates. Briefly, 3 μL of culture (OD600 = 3.0) was inoculated in the center of modified M9 (20 mM NH4Cl; 12 mM Na2HPO4; 22 mM KH2PO4; 8.6 mM NaCl; 1 mM MgSO4; 1 mM CaCl2 2 H2O; 11 mM glucose; 0.5% casamino acids (Difco)) with 0.5% of Bacto-agar (Difco), containing the respective compounds (100 μM final concentration, diluted in DMSO). Plates were incubated inside plastic bags to avoid evaporation at 30 °C for 16 h. After this period, pictures were taken, and the area covered by the colonies was measured using ImageJ. All assays were performed with four replicates, and 0.1% DMSO (v/v) was employed as a negative control.

P. aeruginosa PA14 [2] = test: Biofilm assay (crystal violet); type: cell-based, Pseudomonas aeruginosa; conditions: 100 μM
Protocol: Exponential phase cultures of P. aeruginosa PA14 were diluted to 5 × 10^5 colony forming units (CFU) in 48-well plates with LB containing each compound (1, 3, and 5) at 100 μM final concentrations or 0.1% DMSO (v/v) as a negative control. The plate was incubated steadily at 30 °C for 20 h inside a plastic bag to avoid evaporation. After the incubation, the OD600 of each well was measured in a plate reader (SpectraMax Paradigm). The planktonic bacteria were removed by turning the plate over the waste, followed by three steps of washing with distilled water. After drying, a solution of 1% crystal violet was added to each well and incubated at room temperature for 30 min to stain the attached cells forming a ring at the air–liquid interface. The crystal violet solution was removed, and the plate was washed using the same procedure. The dye was solubilized with 30% acetic acid for 30 min at room temperature. The Abs550 was measured, and the value was divided by the OD600 for each well. A total of 24 replicates were made for each treatment (6 wells per plate, four plates)

PPAR LBDs = test system: PPAR LBDs; set-up: method as in not printed (previous PPAR work); conditions: ref not given (previous PPAR work), cited from earlier work
[3] = test system: P. aeruginosa cells (ATCC 27853); test: Screening of PYO production inhibitors (supernatant absorbance 691 nm); type: cell-based, Pseudomonas aeruginosa; conditions: 100 μM; for Pyocyanin production, Cohen's d vs control: 24 h, 30 °C; for Effect on pyocyanin production: vs DMSO control
Protocol: P. aeruginosa cells (ATCC 27853) were inoculated by depletion on King’s A agar, and the plates were incubated at 30 °C for 24 h. Isolated colonies were collected and resuspended in sterile saline solution (0.85%) until turbidity equivalent to optical density (OD) at 600 nm, equal to 0.3 (1.5 × 10^8 CFU/mL). This bacterial suspension was diluted 10-fold and used to inoculate King’s A broth.
(§1) The potential inhibitors, previously solubilized in DMSO, were added to the culture medium after the inoculation (final concentration = 100 μM). The control group was cultured in the presence of an equivalent volume of DMSO but without the presence of potential inhibitors. The cell suspension was maintained at 30 °C under constant agitation (180 rpm) for 24 h in a 24-well plate. After this period, the OD600 was measured to evaluate bacterial growth, and in parallel, after being subjected to centrifugation, the supernatant was read in a 96-well plate at a wavelength of 691 nm. The sterile medium used for culturing the microorganism was used as a positive control, and culture medium containing 1% DMSO was used as a negative control.

phzA1-G1 = test: lacZ transcriptional fusion, phzA1-G1 operon; type: cell-based, Pseudomonas aeruginosa; conditions: late exponential phase
Protocol: (§2) P. aeruginosa harbors two identically structured operons in its genome, which encode most of the enzymes responsible for PYO synthesis (phzA1-G1 and phzA2-G2) but have slightly different regulatory regions 1. lacZ transcriptional fusions for each operon were assayed at mid-log and late exponential phases (OD=1 and 3, respectively). At mid-log cultures, the expression of both QS-regulated operons is extremely low, and it increases more than 1000-fold at late exponential phase for phzA1-G1 and 4-fold for phzA2-G2, as expected. Addition of compounds 2 and 4 had no effect for both operons in the late […]
(§3) synthesis is not related to inhibition at the transcriptional level.
(§4) Figure 7S: Effect of LDT10 (2) and LDT13 (3) on the phzA1-G1 (A) and phzA2-G2 […]
(§5) (1 picture or pasted object on this page, not shown here)

[4] = test system: P. aeruginosa cells (ATCC 27853); test: Bacterial growth (OD600) in the PYO screening culture; type: cell-based, Pseudomonas aeruginosa; conditions: 100 μM
Protocol: as §1

phzA2-G2 = test: lacZ transcriptional fusion, phzA2-G2 operon; type: cell-based, Pseudomonas aeruginosa; conditions: late exponential phase
Protocol: as §2, §3, §4, §5

T1 sequence (P0DPB9 whole entry): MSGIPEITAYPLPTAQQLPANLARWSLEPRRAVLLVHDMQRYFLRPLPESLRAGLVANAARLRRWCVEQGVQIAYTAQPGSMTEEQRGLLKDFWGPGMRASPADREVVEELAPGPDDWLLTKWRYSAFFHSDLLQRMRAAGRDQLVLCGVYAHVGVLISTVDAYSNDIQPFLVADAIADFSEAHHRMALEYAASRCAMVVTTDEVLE
T2 sequence (P0DPB9 whole entry): as above

Structure (SMILES) | PPAR activity profile (human PPAR isoforms) | Concentration–response behavior of ΔTm (PaPhzD) | ΔTm at 50 µM (PaPhzD) [°C] | other results
CCCCCCCCCCCCCCCc1cccc(O)c1C(=O)O [Compound 1] | dual (PPARα and PPARγ) agonists | clear concentration–response behavior | – | –
CCCCCCCCCCCCCCCc1cccc(OC(C)=O)c1C(=O)O [Compound 3] | pan-agonist activity | clear concentration–response behavior | -4.7 | Kd (PaPhzD-FITC): 0.72 µM; Effect on colony morphology (P. aeruginosa): No effects on colony morphology; Effect on swarming coverage area (P. aeruginosa PA14 [1]): did not affect the coverage area; Swarming motility, Cohen's d vs control (P. aeruginosa PA14 [1]): 0.51; Biofilm mass, % of the control (P. aeruginosa PA14 [2]): ~30%; Biofilm, Cohen's d vs control (P. aeruginosa PA14 [2]): −2.29; Increase of PPAR LBDs Tm vs DMSO control (PPAR LBDs; 50 μM): up to +17 °C; Pyocyanin production, Cohen's d vs control [3]: −1.37; Effect on pyocyanin production [3]: no effect on pyocyanin production
CCCCCCCCCCCCCCCc1cccc(OC)c1C(=O)O [Compound 4] | selective PPARα agonist | clear concentration–response behavior | -3.3 | Effect on phzA1-G1 transcription (phzA1-G1): no effect; Kd (PaPhzD-FITC): 3.6 µM; Effect on colony morphology (P. aeruginosa): No effects on colony morphology; Swarming motility, % compared to control conditions (P. aeruginosa PA14 [1]): 65%; Swarming motility, Cohen's d vs control (P. aeruginosa PA14 [1]): −0.95; Effect on biofilm formation (P. aeruginosa PA14 [2]; vs DMSO control): without affecting bacterial growth or biofilm formation; also recorded: not significantly different the control; Effect on bacterial growth [4]: without affecting bacterial growth; also recorded: no significant effect on bacterial growth; Pyocyanin production, Cohen's d vs control [3]: −2.69; Effect on pyocyanin production [3]: decreased pyocyanin production; Effect on phzA2-G2 transcription (phzA2-G2): no effect
CCCCCCCCCCCCCCCc1cccc(O)c1C(=O)OC [Compound 7] | do not activate PPAR receptors | – | < 0.5 | –
CCCCCCCCCCCCCCCc1cccc(OC(C)=O)c1C(=O)OC [Compound 8] | do not activate PPAR receptors | – | < 0.5 | –
CCCCCCCCCCCCCCCc1cccc(OC)c1C(=O)OC [Compound 9] | do not activate PPAR receptors | – | < 0.5 | –
CCCCCCCCCCCCCCCc1ccc(C(=O)O)c(OC)c1 [Compound 10] | dual (PPARα and PPARγ) agonists | – | -1.2 | –
CCCCCCCCCCCCCCCc1cccc(OC(C)=O)c1 [Compound 11] | do not activate PPAR receptors | – | < 0.5 | –
CCCCCCCCCCCCCCCc1cccc(OC)c1 [Compound 12] | do not activate PPAR receptors | – | < 0.5 | –
CCCCCCCCCCCCCCCc1cccc(OCC(=O)OCC)c1 [Compound 13] | pan-agonist activity | – | -1.2 | Thermal shift in LBDs of PPARα and PPARγ (PPAR LBDs): negative thermal shift
CCCCCCCCCCCCCCCc1cccc(OC(C)(C)C(=O)OCC)c1 [Compound 14] | dual (PPARα and PPARγ) agonists | – | < 0.5 | Effect on Tm values for all three PPARs (PPAR LBDs): no effect on the T m values
CCCCCCCCCCCCCCCc1cccc(OCC(=O)O)c1 [Compound 15] | pan-agonist activity | clear concentration–response behavior | -3.8 | Kd (PaPhzD-FITC): 1000 µM
CCCCCCCCCCCCCCCc1cccc(OC(C)(C)C(=O)O)c1 [Compound 16] | pan-agonist activity | – | -2.6 | –

Reference: PMC12756723, “Derivatives of the Cashew Nut Shell Liquid as Ligands of Pseudomonas aeruginosa Phenazine Protein D (PaPhzD)” (ACS Omega, 2025)
